Drawing on the NIST ThermoML archive (doi:10.1016/j.jct.2011.11.032), this text covers molar enthalpy for three compounds.

Numbers after ± are expanded uncertainties.

This series in a line: molar enthalpy of vaporization or sublimation. As to conditions: 298.15 K; Liquid; Static calorimetry.
Consider `COc1ccncc1` [4-methoxypyridine], for which the molar enthalpy worked out at 57.4 ± 1.3 kJ/mol.

`COc1ccccn1` [2-methoxypyridine]: the molar enthalpy is 45.1 ± 1.3 kJ/mol. Take `COc1cccc(OC)n1` [2,6-dimethoxypyridine]: the molar enthalpy came to 53.9 ± 1 kJ/mol.
